{"source": "patent US9174925B2", "about": "(priority 2011, dated 2015)", "key": {"[1]": {"test_system": "NK92 cells", "format": "cell-based, human"}, "[2]": {"conditions": "reported in literature (Hirota M. et al., 1979); cited from earlier work"}, "[3]": {"test_system": "Epstein-Barr virus", "conditions": "reported in literature (Hirota M. et al., 1979); cited from earlier work"}}, "note": "Where two headings read alike, the source gives them in different places."}
{"smiles": "CCCCCCCCCCCCCCCC(=O)O[C@@H]1[C@@H](C)[C@@]2(O)[C@@H](C(=O)C(CO)=C[C@]3(O)C(=O)C(C)=C[C@@H]23)[C@H]2[C@]1(OC(C)=O)[C@@]2(C)CO", "note": "[Compound 1, 12-O-hexadecanoyl-7-oxo-5-ene-16-hydroxyphorbol-13-acetate]", "values": [{"measurement": "activity for inducing IFN-γ production", "setting": "[1]; 40 nM, FIG. 8", "value": "high activity for inducing IFN-γ production"}]}
{"smiles": "CCCCCCCCCCCCCCCC(=O)O[C@@H]1[C@@H](C)[C@]2(O)[C@@H]3C=C(C)C(=O)[C@@H]3CC(CO)=C[C@H]2[C@H]2[C@]1(OC(C)=O)[C@@]2(C)CO", "note": "[Compound 5, 12-O-hexadecanoyl-4-deoxy-4α-16-hydroxyphorbol-13-acetate]", "values": [{"measurement": "activity for inducing IFN-γ production", "setting": "[1]; 8 μM, FIG. 7", "value": "had activity for inducing IFN-γ production"}]}
{"smiles": "CCCCCCCCCCCCCCCC(=O)O[C@@H]1[C@@H](C)[C@@]2(O)[C@@H](C=C(CO)C[C@]3(O)C(=O)C(C)=C[C@@H]23)[C@H]2[C@]1(OC(C)=O)[C@]2(C)CO", "note": "[Compound 4, 12-O-hexadecanoyl-16-hydroxyphorbol-13-acetate]", "values": [{"measurement": "piscicidal effects", "setting": "[2]", "value": "piscicidal effects"}, {"measurement": "Epstein-Barr virus activation", "setting": "[3]", "value": "Epstein-Barr virus activation"}]}
{"smiles": "CCCCCCCCCCCCCCCC(=O)OC1C(C)C2(O)C(C(=O)C(CO)=CC3(O)C(=O)C(C)=CC32)C2C(C)(C)C12OC(C)=O", "note": "(centres unmarked) [Compound 2, 12-O-hexadecanoyl-7-oxo-5-ene-phorbol-13-acetate]", "values": [{"measurement": "activity for inducing IFN-γ production", "setting": "[1]; 1.6 μM, FIG. 7", "value": "had activity for inducing IFN-γ production"}]}
